This test deals with P388 leukemia ip, CD2F1 mice, survival T/C. As to the kind of experiment: NCI In Vivo Anticancer Drug Screen. Data for tumor model P388 Leukemia (intraperitoneal) in CD2F1 (CDF1) mice. The settings on record: endpoint: median survival time, higher = longer survival. A digest of the protocol: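 Mice carrying the transplanted tumor received test compound or vehicle. Survival was recorded in each group, and the value is the treated-group measurement divided by that of the vehicle-treated control group.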

[1] abbreviates: dose: 50.0 mg/kg/injection, schedule: Q01DX005 (ip), vehicle: Klucel (hydroxypropylcellulose) (HPC).
Where [2] appears, read: dose: 100.0 mg/kg/injection, schedule: Q01DX005 (ip), vehicle: Klucel (hydroxypropylcellulose) (HPC).
[3] abbreviates: dose: 200.0 mg/kg/injection, schedule: Q01DX005 (ip), vehicle: Klucel (hydroxypropylcellulose) (HPC).
Setting [4] is: dose: 25.0 mg/kg/injection, schedule: Q01DX009 (ip), vehicle: saline with Tween-80.
The mark [5] stands for this setting: dose: 50.0 mg/kg/injection, schedule: Q01DX009 (ip), vehicle: saline with Tween-80.
Where [6] appears, read: dose: 100.0 mg/kg/injection, schedule: Q01DX009 (ip), vehicle: saline with Tween-80.
Setting [7] is: dose: 200.0 mg/kg/injection, schedule: Q01DX009 (ip), vehicle: saline with Tween-80.
The mark [8] stands for this setting: dose: 15.0 mg/kg/injection, schedule: Q01DX005 (ip), vehicle: saline with Tween-80.
Setting [9] is: dose: 30.0 mg/kg/injection, schedule: Q01DX005 (ip), vehicle: saline with Tween-80.
The mark [10] stands for this setting: dose: 60.0 mg/kg/injection, schedule: Q01DX005 (ip), vehicle: saline with Tween-80.
[11] abbreviates: dose: 120.0 mg/kg/injection, schedule: Q01DX005 (ip), vehicle: saline with Tween-80.
Where [12] appears, read: dose: 240.0 mg/kg/injection, schedule: Q01DX005 (ip), vehicle: saline with Tween-80.

Where “and” joins values, the source holds several entries; their conditions need not be identical. Identical values can stand only once. Inconclusive results and toxic doses are left out.

Take `c1nc(N2CCCCC2)c2c3c(sc2n1)CCCC3`: the T/C (dose: 50.0 mg/kg/injection, schedule: Q01DX005 (ip), vehicle: saline with Tween-80) was 100 % of control; the T/C (dose: 100.0 mg/kg/injection, schedule: Q01DX005 (ip), vehicle: saline with Tween-80) is 91 % of control; the T/C (dose: 200.0 mg/kg/injection, schedule: Q01DX005 (ip), vehicle: saline with Tween-80) is 96 % of control.

As for `CC/C=C\C/C=C\CC1(O)C=C(Cl)C(=O)C1C(OC(C)=O)C(OC(C)=O)C(CCCC(=O)OC)OC(C)=O` (configuration not stated), the T/C is 103 % of control (dose: 2.25 mg/kg/injection, schedule: Q01DX005 (ip), vehicle: Klucel (hydroxypropylcellulose) (HPC)); 94 % of control (dose: 4.5 mg/kg/injection, schedule: Q01DX005 (ip), vehicle: Klucel (hydroxypropylcellulose) (HPC)); 100 % of control (dose: 9.0 mg/kg/injection, schedule: Q01DX005 (ip), vehicle: Klucel (hydroxypropylcellulose) (HPC)); 95 % of control (dose: 18.0 mg/kg/injection, schedule: Q01DX005 (ip), vehicle: Klucel (hydroxypropylcellulose) (HPC)); 95 % of control (dose: 36.0 mg/kg/injection, schedule: Q01DX005 (ip), vehicle: Klucel (hydroxypropylcellulose) (HPC)).

Take `CCCCC(NC(=O)OCc1ccccc1)C(=O)NC(Cc1c[nH]c2ccccc12)C(=O)O` (configuration not stated): the T/C under setting [1] was 95 % of control, the T/C under setting [2] was 101 % of control and the T/C under setting [3] was 92 % of control.

Consider `Nc1ccc(/C=C/c2ccc3ncccc3c2)cc1`, for which the T/C by setting is: (dose: 12.5 mg/kg/injection, schedule: Q01DX009 (ip), vehicle: saline with Tween-80) 100 % of control; under setting [4], 109 % of control; under setting [5], 97 % of control.

Consider `O=C(c1ccc(Cl)cc1)C(O)NC(=S)c1ccc(Cl)cc1` (configuration not stated), for which the T/C under setting [5] was 96 % of control, the T/C under setting [6] is 111 % of control and the T/C under setting [7] was 113 % of control.

Turning to `OCCc1ccccn1`, the T/C reads like this: (dose: 50.0 mg/kg/injection, schedule: Q01DX009 (ip), vehicle: saline) 102 % of control; (dose: 100.0 mg/kg/injection, schedule: Q01DX009 (ip), vehicle: saline) 111 % of control; (dose: 200.0 mg/kg/injection, schedule: Q01DX009 (ip), vehicle: saline) 102 % of control; (dose: 400.0 mg/kg/injection, schedule: Q01DX009 (ip), vehicle: saline) 102 % of control.

As for `C=C1C(=O)O[C@@H]2C[C@@H](C)[C@@H]3CC[C@H](O)[C@@]3(COC(C)=O)C[C@@H]12`, the T/C by setting is: (dose: 8.13 mg/kg/injection, schedule: Q01DX005 (ip), vehicle: Klucel (hydroxypropylcellulose) (HPC)) 97 % of control; (dose: 16.25 mg/kg/injection, schedule: Q01DX005 (ip), vehicle: Klucel (hydroxypropylcellulose) (HPC)) 99 % of control; (dose: 32.5 mg/kg/injection, schedule: Q01DX005 (ip), vehicle: Klucel (hydroxypropylcellulose) (HPC)) 100 % of control and 98 % of control; (dose: 65.0 mg/kg/injection, schedule: Q01DX005 (ip), vehicle: Klucel (hydroxypropylcellulose) (HPC)) 104 % of control and 109 % of control; (dose: 130.0 mg/kg/injection, schedule: Q01DX005 (ip), vehicle: Klucel (hydroxypropylcellulose) (HPC)) 113 % of control; (dose: 260.0 mg/kg/injection, schedule: Q01DX005 (ip), vehicle: Klucel (hydroxypropylcellulose) (HPC)) 122 % of control.

Consider `Cc1ccoc1`, for which the T/C (dose: 7.5 mg/kg/injection, schedule: Q01DX005 (ip), vehicle: saline with Tween-80) is 105 % of control; the T/C under setting [8] is 100 % of control; the T/C under setting [9] is 97 % of control; the T/C under setting [10] was 98 % of control; the T/C under setting [11] is 101 % of control; the T/C under setting [12] is 106 % of control.

With `COc1cccc(-c2nc3n(n2)CCc2ccccc2-3)c1`, the T/C was 105 % of control under setting [5], 106 % of control under setting [6] and 86 % of control under setting [7].

As to `COc1ccc2cc3n(cc-2c1=O)CCc1cc2c(cc1-3)OCO2`, the T/C (dose: 100.0 mg/kg/injection, schedule: Q04DX003 (ip), vehicle: water) is 160 % of control.

For `S=c1nc[nH]c2c1ncn2CN1CCCCC1`, the T/C was 118 % of control under setting [5]; 122 % of control (dose: 66.0 mg/kg/injection, schedule: Q01DX009 (ip), vehicle: saline sonified); 90 % of control (dose: 150.0 mg/kg/injection, schedule: Q01DX009 (ip), vehicle: saline sonified).

On to `COc1ccc(C(=O)/C=C/c2c[nH]c3ccccc23)c(O)c1`, for which the T/C was 96 % of control under setting [8]; 96 % of control under setting [9]; 96 % of control under setting [10]; 92 % of control under setting [11]; 96 % of control under setting [12].

As for `CC(C)C(NC(=O)OC(C)(C)C)C(=O)O` (configuration not stated), the T/C under setting [1] was 102 % of control, the T/C under setting [2] is 104 % of control and the T/C under setting [3] is 93 % of control.

As for `O=C1SC/C(=N\N=c2/scc(-c3ccccc3)n2-c2ccccc2)N1Cc1ccccc1`, the T/C is 90 % of control (dose: 100.0 mg/kg/injection, schedule: Q04DX002 (ip), vehicle: Klucel (hydroxypropylcellulose) (HPC)); 91 % of control (dose: 200.0 mg/kg/injection, schedule: Q04DX002 (ip), vehicle: Klucel (hydroxypropylcellulose) (HPC)); 88 % of control (dose: 400.0 mg/kg/injection, schedule: Q04DX002 (ip), vehicle: Klucel (hydroxypropylcellulose) (HPC)).

For the molecule `COC1C=C(Br)C(=O)C(C)O1` (configuration not stated), the T/C (dose: 100.0 mg/kg/injection, schedule: Q04DX003 (ip), vehicle: Klucel (hydroxypropylcellulose) (HPC)) was 98 % of control and the T/C (dose: 200.0 mg/kg/injection, schedule: Q04DX003 (ip), vehicle: Klucel (hydroxypropylcellulose) (HPC)) was 106 % of control.

With `O=c1[nH]nc(OCCO)c2ccccc12`, the T/C is, setting by setting: under setting [1], 100 % of control; under setting [2], 98 % of control; under setting [3], 99 % of control.

As to `O=C(c1ccccc1)C(F)(F)C(F)(F)F`, the T/C was 107 % of control under setting [4], 109 % of control under setting [5], 110 % of control under setting [6] and 109 % of control under setting [7].

Take `Nc1nc2ccc([N+](=O)[O-])cc2[nH]1`: the T/C by setting is: (dose: 50.0 mg/kg/injection, schedule: Q01DX009 (ip), vehicle: Klucel (hydroxypropylcellulose) (HPC)) 99 % of control; (dose: 100.0 mg/kg/injection, schedule: Q01DX009 (ip), vehicle: Klucel (hydroxypropylcellulose) (HPC)) 101 % of control; (dose: 200.0 mg/kg/injection, schedule: Q01DX009 (ip), vehicle: Klucel (hydroxypropylcellulose) (HPC)) 90 % of control.

Turning to `CCN(CC)CCCC(C)Nc1cc(C)nc(Nc2nc3cc(Cl)c(Cl)cc3[nH]2)n1` (configuration not stated), the T/C was 100 % of control (dose: 2.5 mg/kg/injection, schedule: Q01DX009 (ip), vehicle: saline with Tween-80); 90 % of control (dose: 5.0 mg/kg/injection, schedule: Q01DX009 (ip), vehicle: saline with Tween-80); 100 % of control (dose: 10.0 mg/kg/injection, schedule: Q01DX009 (ip), vehicle: saline with Tween-80).

As to `COc1cccc(-c2nc(SC)nc(Cl)c2C#N)c1`, the T/C runs as follows: under setting [8], 96 % of control; under setting [9], 86 % of control; under setting [10], 108 % of control and 93 % of control; under setting [11], 113 % of control.

For the molecule `C1CN1c1nc(N2CC2)nc(N2CC2)n1`, the T/C by setting is: (dose: 0.05 mg/kg/injection, schedule: Q01DX009 (ip), vehicle: saline) 111 % of control; (dose: 0.13 mg/kg/injection, schedule: Q01DX009 (ip), vehicle: saline) 115 % of control; (dose: 0.2 mg/kg/injection, schedule: Q01DX009 (ip), vehicle: saline) 159 % of control; (dose: 0.25 mg/kg/injection, schedule: Q01DX009 (ip), vehicle: saline) 150 % of control and 169 % of control; (dose: 0.4 mg/kg/injection, schedule: Q01DX009 (ip), vehicle: saline) 235 % of control; (dose: 0.5 mg/kg/injection, schedule: Q01DX009 (ip), vehicle: saline) 106 % of control and 120 % of control and 246 % of control. Moreover, for the setting “dose: 1.0 mg/kg/injection, schedule: Q01DX009 (ip), vehicle: saline”, the T/C was 88 % of control.

Source of the values: PubChem BioAssay AID330 (DTP/NCI, 2004).
